“And” between values parts separate entries of the source, which are not always exact repeats. Equal entries are not always repeated. After the bases stand the sugars from the 5' end (letter, count) and the backbone: PS all phosphorothioate, else s phosphorothioate and o phosphodiester by linkage. Methylation of C is not given here. e = 2'-O-(2-methoxyethyl) (MOE); k = constrained ethyl (cEt); d = 2'-deoxy (DNA)

The target of the data set is KRAS. The conditions noted are these: ASO.

In turn, “CAGTGTGACTCAGTTA (sugars kkkdddddddddkeke, PS)” had a target mRNA inhibition (A431, 2 µM) of 55%. On the same count and under the same terms, for “AGGAGTCTTTATAGTA (sugars kkkdddddddddkeke, PS)” the value was 31%; for ATTAGTCTCCATTAGT (sugars k3 d10 k3, PS), 29%. Consider GACTTGAAAAGTGTTT (sugars k3 d10 k3, PS), for which the target mRNA inhibition (A431, 2 µM) was determined as 14%. “GTGTTTATGCAATGTT (sugars kkkdddddddddkeke, PS)”: the target mRNA inhibition runs as follows: (A431, 0.185 µM) 30%; (A431, 0.556 µM) 55%; (A431, 1.667 µM) 80%; (A431, 2 µM) 66%; (A431, 5 µM) 85%.

Under “A431, 2 µM”, “CCAGTGATACTTTCAC (sugars kdddddddddkekeke, PS)” registered a target mRNA inhibition of 16%. Still for that read-out and setting: for CACTTGTACTAGTATG (sugars k3 d10 k3, PS) the value was 36%; for ACAAATGCTAATAATT (sugars k3 d10 k3, PS), 1%. On the same count and under the same terms, in the case of CCAGTGTTAAGAGAAC (sugars k3 d10 k3, PS) it was 33%. In turn, CTTCATTGTTTAAAAA (sugars k3 d10 k3, PS) gave a target mRNA inhibition (A431, 2 µM) of 11%. In the case of “TTGATTTGTCAGCAGG (sugars kkddddddddddkeke, PS)”, the target mRNA inhibition (A431, 0.185 µM) came to 25%; the target mRNA inhibition (A431, 0.556 µM) is 48%; the target mRNA inhibition (A431, 1.667 µM) came to 62%; the target mRNA inhibition (A431, 2 µM) was 66% and 45%; the target mRNA inhibition (A431, 5 µM) was found to be 83%.

Sequence AAATTAATGTCTTGGC (sugars k3 d10 k3, PS) yielded a target mRNA inhibition (A431, 2 µM) of 47%. The same measure, in the same setting: for “GTTTATGCAATGTTAA (sugars kdddddddddkekeke, PS)” the value was 31%.

Consider CTTGTTGAGCTATCCA (sugars k3 d10 k3, PS), for which the target mRNA inhibition (A431, 2 µM) was 63%. Take CATTACTTTTTGACAA (sugars k3 d10 k3, PS): for the setting “A431, 2 µM”, the target mRNA inhibition was determined as 8%. Still for that read-out and setting: in the case of GTACTAGTATGCCTTA (sugars k3 d10 k3, PS) it was 50%; in that of ACTTGTACTAGTATGC (sugars k3 d10 k3, PS), 51%. For “TGGTGTAACATAGGTT (sugars kkddddddddddkeke, PS)”, the target mRNA inhibition is, setting by setting: (A431, 0.185 µM) 28%; (A431, 0.556 µM) 62%; (A431, 1.667 µM) 74%; (A431, 2 µM) 67%; (A431, 5 µM) 87%; (NCI-H460, 0.037 µM) 64.3%. For the setting “A431, 2 µM”, CTTACAAATCTGAATT (sugars k3 d10 k3, PS) returned a target mRNA inhibition of 7%. On the same count and under the same terms, for GGAGTCTTTATAGTAA (sugars k3 d10 k3, PS) the value was 38%; for CGAGAATGGATATTCA (sugars k3 d10 k3, PS), 14%. For the setting “A431, 2 µM”, AATAATCCCCATTTCA (sugars k3 d10 k3, PS) yielded a target mRNA inhibition of 16%.

Consider GAGATATCCACAGCAG (sugars k3 d10 k3, PS), for which the target mRNA inhibition (A431, 2 µM) turned out to be 49%. Same read-out and setting: in the case of GTAAATATAGCCCCAA (sugars k3 d10 k3, PS) it was 29%; in that of TCCAGTATTAACACAG (sugars k3 d10 k3, PS), 34%.

CTGTAGTTTCACATAG (sugars k3 d10 k3, PS): for the setting “A431, 2 µM”, the target mRNA inhibition came out at 25%. Still for that read-out and setting: in the case of GTTTAAAAAAAAAATT (sugars k3 d10 k3, PS) it was 2%; in that of “GCTGTGAAACTCTCTA (sugars kdddddddddkekeke, PS)”, 2%. The same measure, in the same setting: in the case of “CCAGTGTTAAGAGAAC (sugars kkdddddddddkdkdk, PS)” it was 38%.

Sequence ATGTAGGGCATTTCTG (sugars k3 d10 k3, PS) displayed a target mRNA inhibition (A431, 2 µM) of 9%.

Take ATTGTGCAATGGTGAC (sugars k3 d10 k3, PS): the target mRNA inhibition (A431, 2 µM) was determined as 57%. Same read-out and setting: in the case of “AGATTGTGCTGAGCTT (sugars kkkdddddddddkeke, PS)” it was 43%.

For the setting “A431, 2 µM”, TAATTAATCCATTTAT (sugars k3 d10 k3, PS) registered a target mRNA inhibition of 0%.

Source of the values: the OligoGym collection.
